# According to ChEMBL document CHEMBL1159249, “Malyngamide H, an ichthyotoxic amide possessing a new carbon skeleton from the Caribbean cyanobacterium Lyngbya majuscula” (J Nat Prod, 1995):
# Columns and labels:
# Format in all cases: organism-based
# [1] = Ichthyotoxicity in gold fish assessed as death after 1 hr; conditions: carassius auratus, in vivo
# Carassius auratus = experiment: Ichthyotoxicity in gold fish assessed as inability to swim after 1 hr
# Artemia = experiment: Toxicity in brine shrimp; conditions: in vivo
structure (smiles),measurement,setting,value
C=C(CCNC(=O)CC/C=C/C[C@H](CCCCCCC)OC)[C@@]12O[C@@H]1CC=C(C)C2=O [MALYNGAMIDE H],LC50 at 1 h,[1],5 µg/mL
same,EC50,Carassius auratus,2 µg/mL
same,Activity,Artemia,Not Active
